According to ChEMBL document CHEMBL3525943, “Regiospecific and stereospecific triangulation of the structures of metabolites formed by sequential metabolism at multiple prochiral centers” (Drug Metab Dispos, 2012):

Experiments:
Type in all cases: ADME, organism-based
Settings in all cases: in vivo; call rule not given here
[1] = Drug recovery in urine of Sprague-Dawley rat at 2 mg/kg, po measured over 48 hrs by liquid scintillation counting analysis; parameters: dose 2 mg/kg, route oral
[2] = Drug recovery in feces of Sprague-Dawley rat at 2 mg/kg, po measured over 48 hrs by liquid scintillation counting analysis; parameters: dose 2 mg/kg, route oral
[3] = test system: Rattus norvegicus; assay: Total drug recovery in Sprague-Dawley rat at 2 mg/kg, po measured over 48 hrs by liquid scintillation counting analysis; parameters: dose 2 mg/kg, route oral
[4] = test system: Plasma; assay: Drug metabolism in Sprague-Dawley rat plasma assessed as formation of (S)-2-((1R,2S,4R,5S)-5-hydroxybicyclo[2.2.1]heptan-2-ylamino)-5-isopropyl-5-methylthiazol-4(5H)-one at 2 mg/kg, po measured at 0.5 hrs by LC-MS/HPLC radiometric analysis; parameters: dose 2 mg/kg, route oral
[5] = test system: Plasma; assay: Drug metabolism in Sprague-Dawley rat plasma assessed as formation of (S)-2-((1R,2S,4R,5R)-5-hydroxybicyclo[2.2.1]heptan-2-ylamino)-5-isopropyl-5-methylthiazol-4(5H)-one at 2 mg/kg, po measured at 0.5 hrs by LC-MS/HPLC radiometric analysis; parameters: dose 2 mg/kg, route oral
[6] = test system: Plasma; assay: Drug level in Sprague-Dawley rat plasma at 2 mg/kg, po measured at 0.5 hrs by LC-MS/HPLC radiometric analysis; parameters: dose 2 mg/kg, route oral
[7] = Drug metabolism in Sprague-Dawley rat feces assessed as formation of trihydroxy norbornyl metabolite at 2 mg/kg, po measured over 24 hrs by LC-MS/HPLC radiometric analysis; parameters: dose 2 mg/kg, route oral
[8] = Drug metabolism in Sprague-Dawley rat feces assessed as formation of (1R,2R,4R,5S)-5-((S)-5-isopropyl-5-methyl-4-oxo-4,5-dihydrothiazol-2-ylamino)bicyclo[2.2.1]heptan-2-yl hydrogen sulfate at 2 mg/kg, po measured over 24 hrs by LC-MS/HPLC radiometric analysis; parameters: dose 2 mg/kg, route oral
[9] = test system: Plasma; assay: Drug metabolism in Sprague-Dawley rat plasma assessed as formation of (S)-5-isopropyl-5-methyl-2-((1R,2S,4R)-5-oxobicyclo[2.2.1]heptan-2-ylamino)thiazol-4(5H)-one at 2 mg/kg, po measured at 0.5 hrs by LC-MS/HPLC radiometric analysis; parameters: dose 2 mg/kg, route oral
[10] = test system: Plasma; assay: Drug metabolism in Sprague-Dawley rat plasma assessed as formation of (S)-2-((1S,2S,4R)-bicyclo[2.2.1]heptan-2-ylamino)-5-((R)-1-hydroxypropan-2-yl)-5-methylthiazol-4(5H)-one at 2 mg/kg, po measured at 0.5 hrs by LC-MS/HPLC radiometric analysis; parameters: dose 2 mg/kg, route oral
[11] = test system: Plasma; assay: Drug metabolism in Sprague-Dawley rat plasma assessed as formation of (S)-2-((1S,2S,4R)-bicyclo[2.2.1]heptan-2-ylamino)-5-((S)-1-hydroxypropan-2-yl)-5-methylthiazol-4(5H)-one at 2 mg/kg, po measured at 0.5 hrs by LC-MS/HPLC radiometric analysis; parameters: dose 2 mg/kg, route oral
[12] = Drug metabolism in Sprague-Dawley rat urine assessed as formation of (S)-2-((1R,2S,4R,5S)-5-hydroxybicyclo[2.2.1]heptan-2-ylamino)-5-isopropyl-5-methylthiazol-4(5H)-one at 2 mg/kg, po measured over 24 hrs by LC-MS/HPLC radiometric analysis; parameters: dose 2 mg/kg, route oral
[13] = Drug metabolism in Sprague-Dawley rat urine assessed as formation of (S)-2-((1R,2S,4R,5R)-5-hydroxybicyclo[2.2.1]heptan-2-ylamino)-5-isopropyl-5-methylthiazol-4(5H)-one at 2 mg/kg, po measured over 24 hrs by LC-MS/HPLC radiometric analysis; parameters: dose 2 mg/kg, route oral
[14] = Drug metabolism in Sprague-Dawley rat urine assessed as formation of (S)-2-((1S,2S,4R,6R)-6-hydroxybicyclo[2.2.1]heptan-2-ylamino)-5-isopropyl-5-methylthiazol-4(5H)-one at 2 mg/kg, po measured over 24 hrs by LC-MS/HPLC radiometric analysis; parameters: dose 2 mg/kg, route oral
[15] = Drug metabolism in Sprague-Dawley rat urine assessed as formation of (S)-2-((1S,2S,4R)-bicyclo[2.2.1]heptan-2-ylamino)-5-((R)-1-hydroxypropan-2-yl)-5-methylthiazol-4(5H)-one at 2 mg/kg, po measured over 24 hrs by LC-MS/HPLC radiometric analysis; parameters: dose 2 mg/kg, route oral
[16] = Drug metabolism in Sprague-Dawley rat urine assessed as formation of (S)-5-isopropyl-5-methyl-2-((1R,2S,4R)-5-oxobicyclo[2.2.1]heptan-2-ylamino)thiazol-4(5H)-one at 2 mg/kg, po measured over 24 hrs by LC-MS/HPLC radiometric analysis; parameters: dose 2 mg/kg, route oral
[17] = Drug metabolism in Sprague-Dawley rat urine assessed as formation of (S)-2-((1R,2S,4R,5S)-5-hydroxybicyclo[2.2.1]heptan-2-ylamino)-5-((S)-1-hydroxypropan-2-yl)-5-methylthiazol-4(5H)-one at 2 mg/kg, po measured over 24 hrs by LC-MS/HPLC radiometric analysis; parameters: dose 2 mg/kg, route oral
[18] = Drug metabolism in Sprague-Dawley rat urine assessed as formation of (S)-2-((1R,2S,4R,5S)-5-hydroxybicyclo[2.2.1]heptan-2-ylamino)-5-(2-hydroxypropan-2-yl)-5-methylthiazol-4(5H)-one at 2 mg/kg, po measured over 24 hrs by LC-MS/HPLC radiometric analysis; parameters: dose 2 mg/kg, route oral
[19] = Drug metabolism in Sprague-Dawley rat urine assessed as formation of (S)-2-((1S,2S,4R,6R)-6-hydroxybicyclo[2.2.1]heptan-2-ylamino)-5-((S)-1-hydroxypropan-2-yl)-5-methylthiazol-4(5H)-one at 2 mg/kg, po measured over 24 hrs by LC-MS/HPLC radiometric analysis; parameters: route oral, dose 2 mg/kg
[20] = Drug metabolism in Sprague-Dawley rat urine assessed as formation of trihydroxy norbornyl metabolite at 2 mg/kg, po measured over 24 hrs by LC-MS/HPLC radiometric analysis; parameters: dose 2 mg/kg, route oral
[21] = Drug level in Sprague-Dawley rat urine at 2 mg/kg, po measured over 24 hrs by LC-MS/HPLC radiometric analysis; parameters: dose 2 mg/kg, route oral
[22] = Drug level in Sprague-Dawley rat feces at 2 mg/kg, po measured over 24 hrs by LC-MS/HPLC radiometric analysis; parameters: dose 2 mg/kg, route oral
[23] = Drug recovery in urine of Sprague-Dawley rat at 5 mg/kg, po measured after 72 hrs by liquid scintillation counting analysis; parameters: dose 5 mg/kg, route oral
[24] = Drug recovery in feces of Sprague-Dawley rat at 5 mg/kg, po measured after 72 hrs by liquid scintillation counting analysis; parameters: dose 5 mg/kg, route oral
[25] = test system: Plasma; assay: Drug level in Sprague-Dawley rat plasma at 5 mg/kg, po measured after 72 hrs by liquid scintillation counting analysis; parameters: dose 5 mg/kg, route oral
[26] = Drug recovery in urine of bile duct cannulated Sprague-Dawley rat at 5 mg/kg, po measured over 48 hrs by liquid scintillation counting analysis; parameters: dose 5 mg/kg, route oral
[27] = Drug recovery in bile of bile duct cannulated Sprague-Dawley rat at 5 mg/kg, po measured over 48 hrs by liquid scintillation counting analysis; parameters: dose 5 mg/kg, route oral
[28] = Drug metabolism in Sprague-Dawley rat urine assessed as formation of (2S,3S,4S,5R)-3,4,5-trihydroxy-6-((1R,2S,4R,5S)-5-((S)-5-isopropyl-5-methyl-4-oxo-4,5-dihydrothiazol-2-ylamino)bicyclo[2.2.1]heptan-2-yloxy)tetrahydro-2H-pyran-2-carboxylic acid at 5 mg/kg, po measured over 48 hrs by LC-MS/HPLC radiometric analysis; parameters: dose 5 mg/kg, route oral
[29] = Drug metabolism in Sprague-Dawley rat urine assessed as formation of (S)-5-isopropyl-5-methyl-2-((1R,2S,4R)-5-oxobicyclo[2.2.1]heptan-2-ylamino)thiazol-4(5H)-one at 5 mg/kg, po measured over 24 hrs by LC-MS/HPLC radiometric analysis; parameters: dose 5 mg/kg, route oral
[30] = Drug metabolism in Sprague-Dawley rat urine assessed as formation of (S)-2-((1R,2S,4R,5S)-5-hydroxybicyclo[2.2.1]heptan-2-ylamino)-5-((R)-1-hydroxypropan-2-yl)-5-methylthiazol-4(5H)-one at 5 mg/kg, po measured over 24 hrs by LC-MS/HPLC radiometric analysis; parameters: dose 5 mg/kg, route oral
[31] = Drug metabolism in Sprague-Dawley rat urine assessed as formation of (S)-2-((1R,2S,4R,5R)-5-hydroxybicyclo[2.2.1]heptan-2-ylamino)-5-((S)-1-hydroxypropan-2-yl)-5-methylthiazol-4(5H)-one at 5 mg/kg, po measured over 24 hrs by LC-MS/HPLC radiometric analysis; parameters: dose 5 mg/kg, route oral
[32] = Drug metabolism in Sprague-Dawley rat urine assessed as formation of (S)-2-((1R,2S,4R,5S)-5-hydroxybicyclo[2.2.1]heptan-2-ylamino)-5-(2-hydroxypropan-2-yl)-5-methylthiazol-4(5H)-one at 5 mg/kg, po measured over 24 hrs by LC-MS/HPLC radiometric analysis; parameters: dose 5 mg/kg, route oral
[33] = test system: Rattus norvegicus; assay: Total drug recovery in female Sprague-Dawley rat treated with [14C]-AMG 221 at 2 mg/kg, po measured over 48 hrs by liquid scintillation counting analysis; parameters: dose 2 mg/kg, route oral
[34] = Retention time of the compound in Sprague-Dawley rat feces treated with [14C]-AMG 221 at 2 mg/kg, po measured over 48 hrs by LC-MS/HPLC radiometric analysis; parameters: dose 2 mg/kg, route oral
[35] = Drug level in Sprague-Dawley rat feces treated with [14C]AMG221 at 2 mg/kg, po measured over 24 hrs by LC-MS/HPLC radiometric analysis; parameters: dose 2 mg/kg, route oral
[36] = Drug excretion in male Sprague-Dawley rat feces treated with [14C]-AMG 221 at 2 mg/kg, po measured over 24 hrs by LC-MS/HPLC radiometric analysis; parameters: dose 2 mg/kg, route oral
[37] = Drug excretion in female Sprague-Dawley rat feces treated with [14C]-AMG 221 at 2 mg/kg, po measured over 24 hrs by LC-MS/HPLC radiometric analysis; parameters: dose 2 mg/kg, route oral

Compound: CC(C)[C@]1([14CH3])SC(N[C@H]2C[C@@H]3CC[C@H]2C3)=NC1=O
- Drug recovery [1]: 64%
- Drug recovery [2]: 14%
- Drug recovery [3]: 81%
- Drug metabolism [4]: metabolite_detected
- Drug metabolism [5]: metabolite_detected
- Drug uptake [6]: Active
- Drug metabolism [7]: metabolite_detected
- Drug metabolism [8]: metabolite_detected
- Drug metabolism [9]: metabolite_detected
- Drug metabolism [10]: metabolite_detected
- Drug metabolism [11]: metabolite_detected
- Drug metabolism [12]: metabolite_detected
- Drug metabolism [13]: metabolite_detected
- Drug metabolism [14]: metabolite_detected
- Drug metabolism [15]: metabolite_detected
- Drug metabolism [16]: metabolite_detected
- Drug metabolism [17]: metabolite_detected
- Drug metabolism [18]: metabolite_detected
- Drug metabolism [19]: metabolite_detected
- Drug metabolism [20]: metabolite_detected
- Drug uptake [21]: Not Active
- Drug uptake [22]: Not Active

Compound: CC(C)[C@]1([14CH3])SC(N[C@H]2C[C@H]3C[C@@H]2C[C@@H]3O)=NC1=O
- Drug recovery [23]: 89%
- Drug recovery [24]: 7%
- Drug uptake [25]: Active
- Drug recovery [26]: 55%
- Drug recovery [27]: 10%
- Drug metabolism [28]: metabolite_detected
- Drug metabolism [29]: metabolite_detected
- Drug metabolism [30]: metabolite_detected
- Drug metabolism [31]: metabolite_detected
- Drug uptake [21]: Active
- Drug metabolism [32]: metabolite_detected

Compound: CC(C)[C@]1(C)SC(N[C@H]2C[C@H]3C[C@@H]2C[C@@H]3OS(=O)(=O)O)=NC1=O
- Drug recovery [33]: 6%
- Retention_time [34]: 23.2 min
- Drug metabolism [35]: metabolite_detected
- Drug excretion [36]: metabolite_not_detected
- Drug excretion [37]: 6%
